pIC50: −log10 of the molar value.
Key:
[1] = biological target: T1, Sterol O-acyltransferase 2 (Homo sapiens, UniProt O75908); test: Inhibition of human ACAT2 expressed in insect Hi5 cells; design: species or system BTI-TN-5B1-4
T1 sequence (O75908 whole entry): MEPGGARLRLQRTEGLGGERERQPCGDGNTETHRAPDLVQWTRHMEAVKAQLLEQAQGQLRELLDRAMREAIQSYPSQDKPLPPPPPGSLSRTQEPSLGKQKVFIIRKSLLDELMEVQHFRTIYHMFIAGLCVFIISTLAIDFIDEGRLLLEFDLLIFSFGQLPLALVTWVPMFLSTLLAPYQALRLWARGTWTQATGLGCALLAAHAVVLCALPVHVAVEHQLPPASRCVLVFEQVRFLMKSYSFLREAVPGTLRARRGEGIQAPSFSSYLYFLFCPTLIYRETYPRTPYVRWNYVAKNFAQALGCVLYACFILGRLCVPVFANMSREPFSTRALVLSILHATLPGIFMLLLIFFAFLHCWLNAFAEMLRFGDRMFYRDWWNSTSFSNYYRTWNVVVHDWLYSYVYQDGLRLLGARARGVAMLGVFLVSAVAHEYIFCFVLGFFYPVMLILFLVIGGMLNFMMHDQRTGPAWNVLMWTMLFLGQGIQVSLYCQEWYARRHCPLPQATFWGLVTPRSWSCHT

[2] = biological target: T2, Sterol O-acyltransferase 2 (Homo sapiens) (UniProt O75908); test: Inhibition of human ACAT2 expressed in insect Hi5 cells at 50 uM; conditions: BTI-TN-5B1-4
T2 sequence (whole entry): T1 sequence (O75908 whole entry)

[3] = biological target: T3, Sterol O-acyltransferase 1 (Homo sapiens) (UniProt P35610); test: Inhibition of human ACAT1 expressed in insect Hi5 cells at 0.5 uM; conditions: BTI-TN-5B1-4
T3 sequence (whole entry): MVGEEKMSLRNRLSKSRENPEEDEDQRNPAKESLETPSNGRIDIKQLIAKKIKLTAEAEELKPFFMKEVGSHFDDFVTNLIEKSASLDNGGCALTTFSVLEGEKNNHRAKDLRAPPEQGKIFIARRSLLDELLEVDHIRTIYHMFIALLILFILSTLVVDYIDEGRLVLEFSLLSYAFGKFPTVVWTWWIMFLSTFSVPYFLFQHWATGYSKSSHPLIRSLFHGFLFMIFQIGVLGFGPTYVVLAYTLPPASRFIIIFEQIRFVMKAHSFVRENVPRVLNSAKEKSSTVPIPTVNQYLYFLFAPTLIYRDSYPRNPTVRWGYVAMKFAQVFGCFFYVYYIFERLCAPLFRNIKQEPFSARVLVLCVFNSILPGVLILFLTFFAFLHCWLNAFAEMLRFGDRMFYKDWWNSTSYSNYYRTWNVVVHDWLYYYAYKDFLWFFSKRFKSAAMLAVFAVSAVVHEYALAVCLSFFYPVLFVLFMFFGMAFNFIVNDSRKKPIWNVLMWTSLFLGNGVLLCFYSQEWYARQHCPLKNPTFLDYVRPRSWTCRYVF

[4] = biological target: T2, Sterol O-acyltransferase 2 (Homo sapiens); test: Inhibition of human ACAT2 expressed in insect Hi5 cells at 0.5 uM; conditions: BTI-TN-5B1-4

CCCCCCCC(=O)Nc1ccccc1-c1ccccc1
pIC50 [1]: 3.64 | inhibition [2]: 39%

CCCCCCCCNc1ccc(-c2ccccc2)cc1
inhibition [2]: 6%

CCCCCCCCNc1ccccc1-c1ccccc1
inhibition [2]: -4%

CCCCCCCCCNc1ccccc1-c1ccccc1
inhibition [2]: -1%

CCCCCCCC(=O)Nc1cccc(-c2ccccc2)c1
inhibition [2]: -4%

CCCCCCCCCNc1ccc(-c2ccccc2)cc1
inhibition [2]: 18%

CCCCCCCC/C=C\CCC(CCCC(C(=O)Nc1ccccc1)C(C)C)C(C)C (stereo not given)
inhibition [3]: 53% | inhibition [4]: 47%

CCCCCCCCC(=O)Nc1ccccc1-c1ccccc1
pIC50 [1]: 3.38 | inhibition [2]: 27%

CCCCCCCCCNc1cccc(-c2ccccc2)c1
inhibition [2]: -8%

CCCCCCCC(=O)Nc1ccc(-c2ccccc2)cc1
inhibition [2]: 11%

CCCCCCCCC(=O)Nc1ccc(-c2ccccc2)cc1
inhibition [2]: 20%

CCCCCCCCC(=O)Nc1cccc(-c2ccccc2)c1
inhibition [2]: -6%

Reference: ChEMBL document CHEMBL1141600, “Biphenyl versus phenylpyridazine derivatives: the role of the heterocycle in a series of acyl-CoA:cholesterol acyl transferase inhibitors” (J Med Chem, 2008)
